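A five-concentration, 48-hour dose response in 96-well plates underlies each endpoint, interpolated linearly between surrounding concentrations. The concentration for 50% growth inhibition is given as GI50.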 Calls of active or inactive are those of the source. Rule as the data show it: active = GI50 up to about 1.1 µM and inactive = higher.
Tests used:
Test in all cases: inhibition of tumour cell growth, NCI panel, 48 h
[1] = tested on: T47D
[2] = tested on: EKVX
[3] = tested on: Hs-578T
[4] = tested on: KM-20L2
[5] = tested on: DU-145
[6] = tested on: HT-29
[7] = tested on: TK-10
[8] = tested on: OVCAR-5
[9] = tested on: BT-549
[10] = tested on: UACC-257
[11] = tested on: A549
[12] = tested on: SNB-78
[13] = tested on: SF-539
[14] = tested on: SF-268
[15] = tested on: NCI-H23
[16] = tested on: NCI-H226
[17] = tested on: K562
[18] = tested on: COLO 205
[19] = tested on: DMS-273
[20] = tested on: UACC-62
[21] = tested on: LXFL 529
[22] = tested on: NCI-H522
[23] = tested on: OVCAR-4
[24] = tested on: HOP-92
[25] = tested on: SK-OV-3
[26] = tested on: SF-295
[27] = tested on: Malme-3M
[28] = tested on: SNB-19
[29] = tested on: HCC 2998
[30] = tested on: M19-MEL
[31] = tested on: MOLT-4
[32] = tested on: RPMI-8226
[33] = tested on: SW-620
[34] = tested on: SN12C
[35] = tested on: UO-31
[36] = tested on: HCT-116
[37] = tested on: SR
[38] = tested on: HCT-15
[39] = tested on: SK-MEL-28
[40] = tested on: CAKI-1
[41] = tested on: OVCAR-8
[42] = tested on: SNB-75
[43] = tested on: KM12
[44] = tested on: IGROV-1
[45] = tested on: RXF 393
[46] = tested on: 786-0
[47] = tested on: SK-MEL-2
[48] = tested on: OVCAR-3
[49] = tested on: SK-MEL-5
[50] = tested on: U-251
[51] = tested on: ACHN
[52] = tested on: HOP-62
[53] = tested on: HL-60
[54] = tested on: PC-3
[55] = tested on: M14
[56] = tested on: CCRF-CEM
[57] = tested on: LOX IMVI
[58] = tested on: MDA-N
[59] = tested on: A498
[60] = tested on: MDA-MB-231
[61] = tested on: NCI/ADR-RES
[62] = tested on: MCF7
[63] = tested on: MDA-MB-435
[64] = tested on: NCI-H460

With `COc1ccc(/C=C\c2cc(OC)c(OC)c(OC)c2)cc1O` [COMBRETASTATIN A4] the GI50 [1] was 41 µM (inactive), the GI50 [2] was 1.22 µM (inactive) and the GI50 [3] was 0.583 µM (active). The GI50 [4] was 1.61 µM (inactive), the GI50 [5] was 0.01 µM (active) and the GI50 [6] was 1.72 µM (inactive). The GI50 [7] was 0.204 µM (active), the GI50 [8] was 0.34 µM (active) and the GI50 [9] was > 10 µM (inactive).
For `CC1(C)CCC(=O)c2c(O)ccc(O)c21`, the GI50 [10] was 25.1 µM (inactive), the GI50 [11] was > 100 µM (inactive) and the GI50 [12] was > 100 µM (inactive). For the same compound, the GI50 [13] was 77.4 µM (inactive), the GI50 [14] was > 100 µM (inactive) and the GI50 [15] was > 100 µM (inactive). The GI50 [16] was > 100 µM (inactive), the GI50 [17] was 26.1 µM (inactive) and the GI50 [18] was > 100 µM (inactive). The GI50 [19] was > 100 µM (inactive), the GI50 [20] was 66.8 µM (inactive) and the GI50 [21] was 42.8 µM (inactive). For the same compound, the GI50 [2] was > 100 µM (inactive), the GI50 [22] was 55.8 µM (inactive) and the GI50 [23] was > 100 µM (inactive). For the same compound, the GI50 [24] was 15.4 µM (inactive), the GI50 [25] was > 100 µM (inactive) and the GI50 [26] was > 100 µM (inactive). For the same compound, the GI50 [27] was > 100 µM (inactive), the GI50 [28] was > 100 µM (inactive) and the GI50 [29] was > 100 µM (inactive). The GI50 [4] was 83.4 µM (inactive), the GI50 [30] was > 100 µM (inactive) and the GI50 [31] was 41.7 µM (inactive). The GI50 [32] was 55.3 µM (inactive), the GI50 [33] was 48.4 µM (inactive) and the GI50 [34] was > 100 µM (inactive). For the same compound, the GI50 [35] was > 100 µM (inactive), the GI50 [36] was 51.9 µM (inactive) and the GI50 [37] was > 10 µM (inactive). For the same compound, the GI50 [38] was 83.9 µM, the GI50 [39] was 39.8 µM (inactive) and the GI50 [40] was 71.8 µM (inactive). For the same compound, the GI50 [41] was 91.8 µM (inactive), the GI50 [42] was 23.1 µM (inactive) and the GI50 [43] was 83.9 µM (inactive). The GI50 [44] was > 100 µM (inactive), the GI50 [6] was 30.1 µM (inactive) and the GI50 [45] was 18.4 µM (inactive). For the same compound, the GI50 [46] was > 100 µM (inactive), the GI50 [7] was > 100 µM (inactive) and the GI50 [47] was 86.5 µM (inactive). The GI50 [8] was > 100 µM (inactive), the GI50 [48] was > 100 µM (inactive) and the GI50 [49] was > 100 µM (inactive). The GI50 [50] was > 100 µM (inactive).
`O=[N+]([O-])c1ccc(S(=O)(=O)Cc2ccccc2)c([N+](=O)[O-])c1` was tested, and the GI50 [10] was 1.67 µM (inactive), the GI50 [51] was 1.58 µM (inactive) and the GI50 [52] was 2.9 µM (inactive). For the same compound, the GI50 [11] was 11.4 µM (inactive), the GI50 [13] was 1.99 µM (inactive) and the GI50 [1] was 1.35 µM (inactive). The GI50 [53] was 1.91 µM (inactive), the GI50 [54] was 1.78 µM (inactive) and the GI50 [14] was 3.16 µM (inactive). For the same compound, the GI50 [15] was 1.9 µM (inactive), the GI50 [55] was 1.87 µM (inactive) and the GI50 [56] was 0.17 µM (active). The GI50 [16] was 21.9 µM (inactive), the GI50 [57] was 1.79 µM (inactive) and the GI50 [17] was 1.13 µM (inactive). The GI50 [58] was 1.96 µM (inactive), the GI50 [18] was 1.79 µM (inactive) and the GI50 [59] was 15.6 µM (inactive). The GI50 [20] was 2.24 µM (inactive), the GI50 [2] was 1.87 µM (inactive) and the GI50 [22] was 0.748 µM (active). The GI50 [23] was 2.2 µM (inactive), the GI50 [24] was 1.79 µM (inactive) and the GI50 [25] was 6.78 µM (inactive). The GI50 [26] was 16.6 µM (inactive), the GI50 [60] was 2.11 µM (inactive) and the GI50 [27] was 2.91 µM (inactive). The GI50 [28] was 17.6 µM (inactive), the GI50 [29] was 7.43 µM (inactive) and the GI50 [3] was 4.12 µM (inactive). For the same compound, the GI50 [61] was 3.21 µM (inactive), the GI50 [31] was 0.139 µM (active) and the GI50 [32] was 1.4 µM (inactive). For the same compound, the GI50 [62] was 1.87 µM (inactive), the GI50 [33] was 1.51 µM (inactive) and the GI50 [34] was 1.91 µM (inactive). The GI50 [63] was 1.75 µM (inactive), the GI50 [35] was 1.58 µM (inactive) and the GI50 [36] was 1.87 µM (inactive). The GI50 [37] was 0.247 µM (active), the GI50 [5] was 3.63 µM (inactive) and the GI50 [38] was 1.82 µM. The GI50 [39] was 4.06 µM (inactive), the GI50 [40] was 1.72 µM (inactive) and the GI50 [41] was 1.89 µM (inactive). The GI50 [42] was 7.48 µM (inactive), the GI50 [43] was 7.38 µM (inactive) and the GI50 [44] was 2.6 µM (inactive). The GI50 [6] was 2.18 µM (inactive), the GI50 [45] was 1.75 µM (inactive) and the GI50 [46] was 1.58 µM (inactive). For the same compound, the GI50 [7] was 1.88 µM (inactive), the GI50 [47] was 2.82 µM (inactive) and the GI50 [8] was 9.55 µM (inactive). The GI50 [48] was 1.44 µM (inactive), the GI50 [49] was 2.12 µM (inactive) and the GI50 [64] was 5.12 µM (inactive). For the same compound, the GI50 [9] was 2.1 µM (inactive) and the GI50 [50] was 2.23 µM (inactive).
